Measured values published in patent US20140017216A1, “PESTICIDAL MIXTURES” (BAYER CROPSCIENCE LP, priority 2011, published 2014).

Tested on: southern armyworm (Spodoptera eridania)
Assay: Test B.7: control of southern armyworm, leaf-dip on lima bean leaves, larval mortality
Format: in vivo
Details: single active, neonate larvae, 4 days
Description: For evaluating control of southern armyworm (Spodoptera eridania) the test unit consists of Petri dishes containing eight-day-old Henderson bush lima bean leaves and 10 neonate S. eridania larvae.
The compounds or mixtures are formulated using a solution containing […] water and 0.05 vol % of a surfactant (Kinetic). Leaves are dipped into different concentrations of formulated compounds or mixtures and allowed to dry. Four replications are performed.
For experimental mixtures in these tests identical volumes of both mixing partners at the desired concentrations respectively, are mixed together.
After application, Petri dishes are incubated in the dark at 26±1° C., for 4 days. Larval mortality is visually assessed.
Metaflumizone at rates of 2.5 and 5.0 kg ai/ha and Streptomyces galbus strain M1064 at rates of 0.69. 1.39, and 2.79 kg ai/ha were tested singly and in combination for control of southern armyworm, Spodoptera eridania in the laboratory.

## N#Cc1ccc(CC(=NNC(=O)Nc2ccc(OC(F)(F)F)cc2)c2cccc(C(F)(F)F)c2)cc1 (mixture of isomers) [Metaflumizone, metaflumizone]
Application rate 2.5 kg ai/ha
  Observed Mortality: 15.0%
Application rate 5.0 kg ai/ha
  Observed Mortality: 47.5%
